Key:
[1] = test system: C57BL/6 mice; experiment: Mice formalin pain model (acute and inflammatory pain); format: in vivo; conditions: hydrochloride salt, blank vehicle 349.55 ± 43.09
From the text: 150 C57BL/6 mice (male, 9-week aged) were randomly divided into 15 groups, (each group had 10 mice) for the analgesic activity test of 3 compounds in the mice formalin pain model respectively: the compound I-1 group (compound I-1 prepared in Example 2 whose hydrochloride salt was used in the experiment), the S-duloxetine group (its hydrochloride salt was used in the experiment) and the compound C1 group (the compound C1 prepared in Comparative Example 1, whose hydrochloride salt was used in the experiment). Before the start of experiments, the mice were allowed to adapt to the experimental environment for 72 h with free feeding and drinking water. The test drugs were administrated by intraperitoneal injection at a dosage as follows:
Compound I-1 group: blank vehicle (blank saline control), 0.1 mg/kg, 0.5 mg/kg, 1 mg/kg, 5 mg/kg and 10 mg/kg;
S-duloxetine group: blank vehicle (blank saline control), 1 mg/kg, 5 mg/kg, 10 mg/kg and 20 mg/kg;
Compound C1 group: blank vehicle (blank saline control), 0.1 mg/kg, 0.5 mg/kg, 1 mg/kg, 5 mg/kg and 10 mg/kg.
After administration, the mice were placed in a transparent, ventilated plexiglass cylinder for 1 h, and then 20 μl of 4% formalin solution was injected into the left hind plantar of mice of each group by microinjector, claw pain response in mice were real-time recorded by a mini-camera. The time length of licking left claw were used as an indicator of pain response, licking time in 0-10 min (phase I) and 10-60 min (phase II) were observed and recorded, and the statistical analysis was conducted. The half effective dose (ED50) of 3 compounds were calculated: ED50 referred to the dose of the drug which decreased licking time by half as compared with the blank control group. The smaller the ED50 value was, the lower the effective analgesic dose of the compound was and the better the analgesic effect was.

[2] = test system: Sprague-Dawley rats; experiment: Rat hot plate pain model (acute pain); format: in vivo
Description: Sprague-Dawley male, mature and unmated rats were placed at hot and cold plate (product model: PE34, US IITC) with constant 53±0.1° C. Mice with painful response such as licking claw, shaking claw or slightly jumping within 10-30 s were selected, and mice which evaded and jumped were abandoned. […] The test compound was freshly prepared on the day of administration. 0.9% NaCl physiological saline solution was prepared as solvent for later use. Appropriate amount of test compound was added into required volume of physiological saline and fully suspended, and the concentration of prepared drug was 1 mg/ml. […] After administration, the latency of heat pain was measured at 0.5 h, 1 h and 2 h after administration. In order to prevent animals from being scalded on the hot plate, the maximum incubation time was set to 30 s. Maximum possible effect (MPE) % was used to evaluate analgesic effect of each compound, i.e., MPE %=[(Post drug latency−baseline latency)/(30−baseline latency)]×100. MPE % at different time points was recorded.

[3] = biological target: TRPA1 (Mus musculus (Mouse), UniProt Q8BLA8); experiment: IonWorks Barracuda (IWB) automated patch clamp detection of TRPA1 inhibitory activity; format: cell-based; conditions: HEK293 cells stably expressing TRPA1; current induced by AITC; read-out: IC50 (μM), inhibitory activity on TRPA1 in the automated patch clamp detection test
TRPA1, sequence (Q8BLA8 whole entry): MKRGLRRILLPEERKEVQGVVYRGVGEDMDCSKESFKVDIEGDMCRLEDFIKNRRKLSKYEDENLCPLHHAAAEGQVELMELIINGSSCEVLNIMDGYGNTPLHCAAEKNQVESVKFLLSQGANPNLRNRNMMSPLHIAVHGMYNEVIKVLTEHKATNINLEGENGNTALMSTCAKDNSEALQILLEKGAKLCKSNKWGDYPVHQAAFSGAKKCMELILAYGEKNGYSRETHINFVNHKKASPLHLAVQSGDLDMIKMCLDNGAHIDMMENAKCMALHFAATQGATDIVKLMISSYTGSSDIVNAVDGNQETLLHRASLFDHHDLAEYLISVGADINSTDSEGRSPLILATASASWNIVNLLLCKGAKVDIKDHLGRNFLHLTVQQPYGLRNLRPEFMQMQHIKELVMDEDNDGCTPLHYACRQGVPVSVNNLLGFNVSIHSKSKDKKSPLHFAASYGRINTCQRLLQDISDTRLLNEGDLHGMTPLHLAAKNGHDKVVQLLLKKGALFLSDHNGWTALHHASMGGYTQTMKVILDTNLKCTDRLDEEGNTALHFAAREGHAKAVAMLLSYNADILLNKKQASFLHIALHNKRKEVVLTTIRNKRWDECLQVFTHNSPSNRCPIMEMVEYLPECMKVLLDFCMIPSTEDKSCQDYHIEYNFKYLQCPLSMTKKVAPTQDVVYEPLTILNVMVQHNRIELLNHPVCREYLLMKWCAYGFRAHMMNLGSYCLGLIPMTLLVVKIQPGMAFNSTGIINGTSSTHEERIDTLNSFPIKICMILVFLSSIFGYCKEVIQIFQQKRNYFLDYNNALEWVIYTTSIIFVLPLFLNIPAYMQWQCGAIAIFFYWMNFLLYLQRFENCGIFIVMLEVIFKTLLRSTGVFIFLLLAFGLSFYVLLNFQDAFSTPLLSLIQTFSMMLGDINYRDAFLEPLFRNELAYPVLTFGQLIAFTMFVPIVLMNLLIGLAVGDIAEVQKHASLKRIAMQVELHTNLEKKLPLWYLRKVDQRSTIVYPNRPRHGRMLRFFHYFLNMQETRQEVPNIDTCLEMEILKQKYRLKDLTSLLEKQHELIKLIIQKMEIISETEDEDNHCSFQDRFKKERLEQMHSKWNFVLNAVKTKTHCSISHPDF
Description: The inhibitory activity of some compounds in the examples of the present invention (as shown in Table 1) on transient receptor potential channel protein TRPA1 was tested in this example. The compound of formula A (WO2010075353) was used as a positive control compound: […]
Ion Works Barracuda (IWB) automated patch clamp detection was used as test method: HEK293 cells stably expressing TRPA1 were placed in DMEM medium containing 15 μg/mL Blasticidin S HCl, 200 μg/mL Hygromycin B and 10% FBS in the T175 culture flask, and cultured in 37° C., 5% CO2 incubator. When the cell density reached about 80%, the culture medium was removed, rinsed with phosphate buffered saline (PBS) without calcium and magnesium. 3 mL of Trypsin was added to digest for 2 min, 7 mL of culture medium was added to terminate the digestion. The cells were collected to 15 mL centrifuge tube and centrifuged at 800 rpm for 3 min. After the supernatant was removed, the cells were added to appropriate volume of extracellular fluid for re-suspending, and the cell density was controlled at 2-3×10^6/mL for IWB experiment. Extracellular fluid formulation (in mM): 140 NaCl, 5 KCl, 1 MgCl2, 10 HEPES, 0.5 EGTA, 10 Glucose (pH 7.4); intracellular fluid formulation (in mM): 140 CsCl, 10 HEPES, 5 EGTA, 0.1 CaCl2, 1 MgCl2 (pH 7.2). 28 mg/mL of amphotericin B was freshly prepared with DMSO on the day of experiment, and then final concentration of 0.1 mg/mL was prepared with intracellular fluid.
Population patch clamp (PPC) plate was used in IWB experiment. The entire detection process was automatically carried out by the instrument. Extracellular fluid was added into 384 wells of PPC plate, and 6 µL of the intracellular fluid was added into plenum (under the PPC plate), 6 µL of cell fluid was added for sealing test, and finally the intracellular fluid in plenum was replaced with amphotericin B-containing intracellular fluid to establish a whole-cell recording mode after perforating sealed cells. The sampling frequency for recording TPRA1 current was 10 kHz, the cells were clamped at 0 mV, the voltage stimulation command (channel protocol) was a ramp voltage from −100 mV to +100 mV for 300 ms. This voltage stimulation was applied every 10 s, mTRPA1current was induced by 300 µM AITC.
Data recording and current amplitude measurement export were carried out by IWB software (version 2.5.3, Molecular Devices Corporation, Union City, CA). No statistics was recorded for holes with sealing impedance lower than 20 MQΩ. The original current data was corrected by software for leakage reduction. TRPA1 current amplitude was measured at +100 mV. […] If IC50 value of HC030031 exceeded 3 times the average IC50 value previously obtained on each plate, it would be re-tested. The dose-effect curve of compounds and IC50 were fitted and calculated by GraphPad Prism 5.02 (GraphPad Software, San Diego, CA).
Some compounds in the examples of the present invention were detected by lonWorks Barracuda (IWB) automated patch clamp detection method for IC50 inhibitory activity.

[4] = test system: SD rats; experiment: Rat SNL model, mechanical allodynia test (nerve pain); format: in vivo; conditions: 1 h after administration, 100 mg/kg oral; control group 3.967 ± 0.775
Description: Male SPF grade SD rats, weighed 150 g-180 g, were selected. Aseptic operation during surgery was performed. The animals were anesthetized with sodium pentobarbital (50 mg/kg, intraperitoneal injection). The surgical area of animal waist was shaved and the skin was disinfected three times with iodophor and 70% ethanol. After the skin was dried, the operation was started. Surgical knife was used to make a longitudinal incision at the back of the sacrum of the animal waist to expose the left paraspinal muscles, and stretcher was used to separate muscle tissue to expose the spine. The left spinal nerves L5 and L6 were separated and ligated with a 6-0 silk thread, and the wound was sutured. After the operation, the animals were placed on electrothermal pad, and 5 mL of saline was injected subcutaneously to prevent dehydration. After the animals were fully awakened and could move around freely, the animals were put back in the cage.
After the operation, the animals were adapted in the experimental environment for 15min/day for 3 days.
The animals were weighed to calculate the dose. […] After administration, mechanical allodynia test was performed. The rat was individually placed in a plexiglass box with a grid on the bottom of the box to ensure that the rat claw could be tested. The rats were allowed to adapt the environment for 15 min before test. After the adaptation was completed, the test fiber was used to test the center of the left hind claw of the rat. The test fiber comprises 8 test strengths: 3.61 (0.4 g), 3.84 (0.6 g), 4.08 (1 g), 4.31 (2 g), 4.56 (4 g), 4.74 (6 g), 4.93 (8 g), and 5.18 (15 g). […] During the test, rapid withdrawal of animal claw was recorded as pain response. When the test fiber was removed from animal skin, the withdrawal of animal claw was also recorded as pain response. If animal moved, the pain response was not recorded, and the test was repeated. […]
Mechanical allodynia was expressed as withdrawal threshold (PWT) in rat behavioral test, which was calculated with the following formula: […]

[5] = test system: ICR mice; experiment: Mice acetic acid writhing pain model (visceral and inflammatory pain); format: in vivo; conditions: 10 mg/kg by gavage, 1 h before acetic acid; saline group 49 times
Description: Male ICR mice, 22-25 g, were fasted but allowed to drink water freely for 2 h before administration. All ICR mice were weighed and grouped randomly, each group had >10 animals. […] The drug was administrated by gavage based on the weight of mice. 1.5% acetic acid solution (0.1 ml/10 g) was injected intraperitoneally 1 h after administration, and the number of times of visceral pain in each group was observed within 30 min. When concave abdomen, stretched trunk and hind claw, and high buttocks appeared, one number point was recorded. Finally, the number of appearance of the above phenomenon was counted within 30 minutes.

CNCC[C@H](Oc1cccc2ccoc12)c1cccs1 [Compound C1, (S)-3-(benzofuran-7-yloxy)-N-methyl-3-(thiophen-2-yl)propyl-1-amine]
Licking claw time (s) in phase II (10-60 min) ([1]; 0.1 mg/kg intraperitoneal): 339.35 ± 27.90 s | Licking claw time (s) in phase II (10-60 min) ([1]; 0.5 mg/kg intraperitoneal): 368.16 ± 44.46 s | Licking claw time (s) in phase II (10-60 min) ([1]; 1 mg/kg intraperitoneal): 171.57 ± 39.69 s | Licking claw time (s) in phase II (10-60 min) ([1]; 5 mg/kg intraperitoneal): 158.02 ± 25.18 s | Licking claw time (s) in phase II (10-60 min) ([1]; 10 mg/kg intraperitoneal): 35.68 ± 11.77 s | MPE % ([2]; 0.5 h after administration, 30 mg/kg intraperitoneal, hydrochloride salt): 5.29 ± 1.56% | MPE % ([2]; 1 h after administration, 30 mg/kg intraperitoneal, hydrochloride salt): 14.20 ± 5.71% | MPE % ([2]; 2 h after administration, 30 mg/kg intraperitoneal, hydrochloride salt): 21.83 ± 2.45%

CNCC[C@@H](Oc1cccc2ccoc12)c1ccccc1 [Compound C2, (R)-3-(benzofuran-7-yloxy)-N-methyl-3-phenylpropyl-1-amine]
IC50 [3]: 11 to 20 µM

NCC[C@@H](Oc1cccc2ccoc12)c1cccs1 [Compound I-2, (R)-3-(benzofuran-7-yloxy)-3-(thiophen-2-yl)propyl-1-amine]
IC50 [3]: 6 to 10 µM

CN(C)CC[C@@H](Oc1cccc2ccoc12)c1cccs1 [Compound I-3, (R)-3-(benzofuran-7-yloxy)-N,N-dimethyl-3-(thiophen-2-yl)propyl-1-amine]
IC50 [3]: 1 to 5 µM

CCNCC[C@@H](Oc1cccc2ccoc12)c1cccs1 [Compound I-4, (R)-3-(benzofuran-7-yloxy)-N-ethyl-3-(thiophen-2-yl)propyl-1-amine]
IC50 [3]: 1 to 5 µM

CNCC[C@@H](Oc1cccc2ccoc12)c1ccsc1 [Compound I-5, (R)-3-(benzofuran-7-yloxy)-N-methyl-3-(thiophen-3-yl)propyl-1-amine]
IC50 [3]: 1 to 5 µM

CNCC[C@@H](Oc1cccc2ccoc12)c1ccc(C)s1 [Compound I-6, (R)-3-(benzofuran-7-yloxy)-N-methyl-3-(5-methylthiophen-2-yl)propyl-1-amine]
IC50 [3]: 6 to 10 µM

CNCC[C@@H](Oc1cccc2ccoc12)c1ccco1 [Compound I-8, (R)-3-(benzofuran-7-yloxy)-3-(furan-2-yl)-N-methylpropyl-1-amine]
IC50 [3]: 1 to 5 µM

CNCC[C@@H](Oc1cccc2c1CCC2)c1cccs1 [Compound I-9, (R)-3-((2,3-dihydro-1H-inden-4-yl)oxy)-N-methyl-3-(thienyl-2yl)propyl-1-amine]
IC50 [3]: 6 to 10 µM

CNCC[C@@H](Oc1cccc2occc12)c1cccs1 [Compound I-11, (R)-3-(benzofuran-4-yloxy)-N-methyl-3-(thiophen-2-yl)propyl-1-amine]
IC50 [3]: 6 to 10 µM

C[C@H]1CCCN1c1ccc(-c2csc(NC(=O)Cn3cnc4c3c(=O)n(C)c(=O)n4C)n2)cc1F [Compound of formula A]
IC50 [3]: 51 to 100 µM

NCC1(CC(=O)O)CCCCC1 [Gabapentin, gabapentin]
MPE % ([2]; 0.5 h after administration, 100 mg/kg intraperitoneal): 6.47 ± 5.49% | MPE % ([2]; 1 h after administration, 100 mg/kg intraperitoneal): 14.56 ± 6.18% | MPE % ([2]; 2 h after administration, 100 mg/kg intraperitoneal): 22.66 ± 4.93% | PWT(g), claw withdrawal threshold [4]: 6.352 ± 1.897 g

CNCC[C@@H](Oc1cccc2ccccc12)c1cccs1 [R-duloxetine]
IC50 [3]: 21 to 50 µM

CN1[C@H]2C[C@H](OC(=O)[C@H](CO)c3ccccc3)C[C@@H]1[C@@H](O)C2 [anisodamine]
number of appearance of writhing reactions (visceral pain) within 30 min [5]: 27 times

COc1ccc2c(c1)c(CC(=O)O)c(C)n2C(=O)c1ccc(Cl)cc1 [indomethacin]
number of appearance of writhing reactions (visceral pain) within 30 min [5]: 28 times
